# Measurements: patent US20150313913A1, “POSITIVE ALLOSTERIC MODULATORS OF THE GABA-A RECEPTOR IN THE TREATMENT OF AUTISM” (UNIVERSITY OF WASHINGTON THROUGH ITS CENTER FOR …, priority 2013, published 2015)
# Entries after “also recorded” stand apart in the source; their conditions may differ.
# Tests used:
# Scn1a+/− mice = assay: Three-chamber social preference test; assay type: in vivo
# Source text: The mouse was allowed to freely explore each chamber. […] The recorded video file was further analyzed by off-line video tracking software (ETHOVISION™ XT 7.0). […] All data shown are means±s.e.m. and analyzed using two-way ANOVA with Bonferroni's post hoc analysis and one-way ANOVA with Tukey's post hoc analysis.
# Oral administration is specifically contemplated for the methods described herein, and is well known for both benzodiazepines and non-BDZ GABA-A enhancers as described herein.
# (§1) The test was performed as described previously (Han et al., 2012) with minor modifications. The threechamber apparatus is a non-transparent Plexiglas box (30×60 cm) with two transparent partitions that make left, center, and right chambers (30×20 cm). In the first 10-min session, a test mouse was placed in the center of the empty three-chamber unit to habituate the test mouse. The mouse was allowed to freely explore each chamber. In the second 10-min session, an age- and gender-matched same strain mouse that had never been exposed to the test mouse, was placed in one of the two wire cages. The empty wire cage as an inanimate object cue was placed on the other side. Then, the test mouse was placed again in the center, and allowed to freely explore the chamber for 10 min. Time spent in each chamber, and time spent within a 5 cm radius proximal to each wire cage, as a close interaction were measured by the videotracking software (EthoVision XT 8.5, Noldus Technology). All data shown are means±s.e.m. and analyzed using two-way ANOVA with Bonferroni's post hoc analysis and one-way ANOVA with Tukey's post hoc analysis.
# (§2) L-838,417, and DMCM (Sigma), dissolved in 100% DMSO (sterile, Sigma) was diluted in PBS (the final concentration of DMSO was ranged from 0.005% to 0.1%). Drugs were administered by an intraperitoneal injection in a volume of […] 30 min before the behavioral tests.
# BTBR mice [1] = assay: Three-chamber social interaction test; settings: for social interaction deficit: 0.05 mg/kg (low dose) 30 min before test; for effect on social interaction at doses above the maximally effective dose: higher doses; for dose of maximal effect on social interaction: i.p., 30 min before test; for social interaction (time with stranger mouse, close interaction), dose series: single i.p. injection 30 min before test, low/increasing doses
# Experimental: In the three-chamber test, a test mouse is placed in the center chamber, and the preference of the test mouse for interaction with an inanimate object (a small empty cage) in the left chamber vs. a stranger mouse in an identical cage in the right chamber using a digital camera and quantitative video-tracking analysis.
# as §1, §2
# C57BL/6J mice [2] = assay: Three-chamber social interaction test; assay type: in vivo; settings: for social interaction preference, Pre/CLZ/Post protocol: low dose (0.05 mg/kg), 0.05 mg/kg
# Source text: The mouse was allowed to freely explore each chamber.
# [3] = tested on: mouse genetic models of human Dravet syndrome and idiopathic autism; assay: Summary: low-dose treatment of mouse models of autism; assay type: in vivo, mice; settings: low doses that do not induce sedative or anxiolytic effects
# Source text: The present disclosure describes methods effective in the rescue or amelioration of autism-like behavior, cognitive deficit, and context-dependent spatial memory.
# In particular embodiments, these methods comprise the administration of low doses of a benzodiazepine to a human or other mammalian subject in order to rescue autism-like behavior, cognitive deficit, and context-dependent spatial memory. […] At such low doses, the administration of benzodiazepines, such as CLZ, to mammalian subjects will result in improvement of autism-like behavior, cognitive deficit, and context-dependent spatial learning and memory with much lower levels of sedation compared to mammalian subjects who receive typical higher doses of CLZ or other benzodiazepines that are used for treatment of anxiety, insomnia, or seizure.
# The present disclosure is also directed to methods of rescuing or ameliorating indicia of Autism Spectrum disorders, autism-like behavior, cognitive deficit, and context-dependent spatial learning and memory in Dravet syndrome or idiopathic autism with α-2,3-specific GABA-A receptor positive allosteric modifiers. Such α-2,3-subunit selective GABA-A receptor positive allosteric modifiers include L838,417.
# Therapeutic approaches to treat autistic traits in animal studies or in clinical trials have primarily focused on reducing excitatory neurotransmission in glutamatergic synapses to rebalance E/I ratio in autistic brain (Michalon et al., 2012; Yang et al., 2012). However, autistic-like behaviors in ASD mouse models are only partially reversed by drugs that inhibit excitatory neurotransmission, and these drugs also have unwanted side effects on wild-type mice (Henderson et al., 2012; Michalon et al., 2012; Yang et al., 2012). To overcome these drawbacks, the inventors focused on the opposing side, the GABAergic inhibitory transmission in autistic brain. Their results highlight the potential for therapy of autistic-like behaviors and cognitive deficit in ASD by low-dose treatment with subunit-selective benzodiazepines and other positive allosteric modulators of GABA-A receptors. […] It is possible that the biphasic dose-response relationship of the positive allosteric modulators reflects their actions on receptors containing α2,3 subunits at low doses and on receptors containing α1 subunits at higher doses.
# C57BL/6J mice [4] = assay: Context-dependent fear conditioning test; assay type: in vivo
# Source text: (§3) The contextual fear-conditioning chamber was a square arena (25×25 cm) with clear PLEXIGLAS™ walls and a metal grid floor connected to a circuit board that delivered shocks to the metal grid (COULBOURN INSTRUMENTS™). An analog camera was attached on top of the chamber. The camera and the circuit board were connected to a personal computer, and its software (FREEZE FRAME™ 2.0, ACTIMETRICS™) controlled the circuit and recorded the data. The chamber was cleaned with 70% ethanol and wiped with paper towels before each session. In the habituation session, a test mouse was placed in the chamber and allowed to explore for 2 min^66-69. Immediately after habituation, the test mouse received a single mild foot shock (2 s, 0.5 mA). After staying in the chamber one more min, the mouse was removed from the chamber. For the 30-min short-term memory test, the mouse was returned to the context 30 min after the end of the training session. For 24-hr long-term memory test, the mouse was returned to the context 24 hr after the training session. The movement of mice was also recorded by a USB webcam (LIFECAM™ HD-6000, MICROSOFT™) and PC-based video capture software (WINAVI™ Video Capture, ZJ MEDIA DIGITAL TECHNOLOGY™) for 2 min. The recorded video file was further analyzed by off-line video tracking software (ETHOVISION™ XT 7.0, NOLDUS TECHNOLOGY™). The freezing scores were calculated by dividing the test session into 1 min bouts and averaging together all 2 min for each animal. All data shown.
# (§4) Freezing behavior is defined as the period during which the velocity of the test mouse is less than 1.75 cm/s, and non-freezing behavior is defined as the period during which the velocity of the mouse is greater than 2 cm/s.
# BTBR mice [5] = assay: Context-dependent fear conditioning test; assay type: in vivo
# Source text: as §3, §4
compound,measurement,setting,value
"Cn1ncnc1COc1nn2c(-c3cc(F)ccc3F)nnc2cc1C(C)(C)C [L-838,417]",social interactions in three-chamber test,"Scn1a+/− mice; low doses, narrow dose range (FIGS. 41N, 41O)",improves social interactions
same,social interaction deficit,BTBR mice [1],rescued
same,social behavior (close interaction),BTBR mice [1]; 0.5 mg/kg,disappeared
same,dose at low point of time in the chamber with the inanimate object,BTBR mice [1]; biphasic dose-response,0.05 mg/kg
same,effect on social interaction at doses above the maximally effective dose,BTBR mice [1],lost when the dose increased
same,effect on social interaction at doses above the maximally effective dose,"BTBR mice [1]; listed as L838,417",reduced response
same,dose of maximal effect on social interaction,BTBR mice [1],0.05 mg/kg
same,time of interaction with the inanimate object,BTBR mice [1]; increasing doses,decrease
same,total movement during the three-chamber test at high dose,"BTBR mice [1]; mouse, in vivo",tended to increase
same,"social interaction (time with stranger mouse, close interaction), dose series",BTBR mice [1],increased
same,"social interaction (time with stranger mouse, close interaction), dose series","BTBR mice [1]; listed as L818,417",progressively increase
same,"social behavior, dose series","C57BL/6J mice [2]; L-838,417 / zolpidem (FIGS. 45I, 45J)",not changed; also recorded: did not change
same,autistic-like behaviors and cognitive deficit in BTBR mice (summary),[3],improved
same,memory of the spatial context,"C57BL/6J mice [4]; 0.05 mg/kg L838,417",no effect
same,long-term (24 h) memory,BTBR mice [5]; 0.05 mg/kg,improved
same,short-term (30 min) memory,BTBR mice [5]; 0.05 mg/kg,improved
same,memory of the spatial context,BTBR mice [5]; 0.05 mg/kg 30 min before training session and 24-h memory session,substantially improved
same,spatial learning behavior (FIG. 13B legend),"BTBR mice [5]; 0.05 mg/kg, legend body prints DS mice, title BTBR mice",substantially rescued
O=C1CN=C(c2ccccc2Cl)c2cc([N+](=O)[O-])ccc2N1 [Clonazepam],"social interaction, 3-chamber social preference test","Scn1a+/− mice; single i.p. 0.0625 mg/kg 30 min before test, listed as CLZ, 0.0625 mg/kg",completely rescued; also recorded: completely restored; also recorded: completely recovered
same,social interaction deficit,BTBR mice [1],reversibly rescued; also recorded: improved
same,social interaction deficit,BTBR mice [1]; listed as CLZ,recover their preference
same,social interactions on Day 1 of repeated treatment,BTBR mice [1]; 0.05 mg/kg i.p. daily,significantly increased
same,social interactions after 14 days of repeated treatment,BTBR mice [1]; 0.05 mg/kg i.p. daily for 14 days,fully retained and even increased
same,sedation / total distance moved during the three-chamber test,BTBR mice [1]; dose range up to 0.5 mg/kg (clonazepam: test doses),did not cause sedation; also recorded: no sedation
same,improvement of social deficit: time of interaction with stranger mouse vs. novel object,BTBR mice [1]; dose series (FIG. 39D),strikingly dose-dependent
same,increase of time spent in the chamber containing the stranger mouse,BTBR mice [1]; doses from 0.00625 mg/kg to 0.05 mg/kg i.p.,approximately 2.5 fold
same,effect on social interaction at doses above the maximally effective dose,BTBR mice [1],not observed; also recorded: lost at higher doses
same,dose of maximal effect on social interaction,BTBR mice [1],0.05 mg/kg
same,tolerance to rescue of social interaction behavior,"BTBR mice [1]; repeated 0.05 mg/kg, 14 days",does not elicit tolerance
same,"social interaction (time with stranger mouse, close interaction), dose series",BTBR mice [1],rescued; also recorded: increased
same,time of interaction with stranger mouse vs. novel object,C57BL/6J mice [2]; any of the test doses (FIG. 39C),unaffected
same,social interactions / close interaction,"C57BL/6J mice [2]; clonazepam single injection, 0-0.1 mg/kg",not altered; also recorded: no effect
same,"social interaction preference, Pre/CLZ/Post protocol",C57BL/6J mice [2],not changed; also recorded: None of these treatments had any significant effect
same,"social interaction preference, Pre/CLZ/Post protocol",C57BL/6J mice [2]; listed as CLZ,does not significantly alter
same,autistic-like behaviors and cognitive deficit in BTBR mice (summary),[3],improved
same,cognitive changes in fear conditioning,"C57BL/6J mice [4]; clonazepam, any dose (0-0.1 mg/kg)",no cognitive changes
same,short-term and long-term memory,BTBR mice [5]; 0.0125 mg/kg,no significant effects
same,long-term (24 h) memory,BTBR mice [5]; 0.05 mg/kg,improved
same,short-term (30 min) memory,BTBR mice [5]; 0.05 mg/kg,improved
same,short-term and long-term memory,BTBR mice [5]; 0.1 mg/kg,no significant effects
same,context-dependent fear memory on Day 1 and Day 14,BTBR mice [5]; daily 0.05 mg/kg for 14 days,improved
same,tolerance to effects on cognitive deficit,BTBR mice [5]; daily 0.05 mg/kg for 14 days,does not cause tolerance
same,spatial learning in context-dependent fear conditioning,BTBR mice [5]; low-dose CLZ (FIG. 10),rescued
